In US5641804A, “Fungicidal compound comprising a cyclic polylactone” (Novo Nordisk A/S, priority 1992, dated 1997):
Converted amounts (≈) assume the structure as drawn.

Key:
Botrytis cinerea [1] = assay: Agar well inhibition zone, Botrytis cinerea, mycelium plates (Bc1); assay type: cell-based; parameters: key to inhibition zone Bc1: clear; diffuse; very diffuse; +: very weak; conditions: 15 μl per well, 3 days at 25° C.
Experimental: (§1) Botrytis cinerea (Bc) grey mould
(§2) Each of the above mentioned 9 pathogens were separately innoculated into 100 ml of potato dextrose (PD) bouillon and shaken at 200 rpm at 25° C. for 7 days. The mycelium was harvested and homogenized for about 10 seconds in a Warring blender and 1-5 ml of the blended mycelium was transferred to petri dishes with a diameter of 14 cm. […] 20 ml of potato dextrose agar (PDA) having a temperature of 45° C. were poured into each of the petri dishes and thorougly mixed with the blended mycelium present therein. When the agar had solidified, wells of a diameter of 4 mm were punched in the agar, and 15 μl of test solutions containing varicus concentrations of compound Ia, Ib and IIa dissolved in ethanol was applied to each well. The plates were incubated for three days at 25° C. and the inhibition zones measured (in mm). […]

Botrytis cinerea [2] = assay: Agar well inhibition zone, Botrytis cinerea, plates made from spores (Bc2); assay type: cell-based
Experimental: as §1
(§3) Each of the above mentioned 9 pathogens were separately innoculated into 100 ml of potato dextrose (PD) bouillon and shaken at 200 rpm at 25° C. for 7 days. The mycelium was harvested and homogenized for about 10 seconds in a Warring blender and 1-5 ml of the blended mycelium was transferred to petri dishes with a diameter of 14 cm. […] 20 ml of potato dextrose agar (PDA) having a temperature of 45° C. were poured into each of the petri dishes and thorougly mixed with the blended mycelium present therein. When the agar had solidified, wells of a diameter of 4 mm were punched in the agar, and 15 μl of test solutions containing varicus concentrations of compound Ia, Ib and IIa dissolved in ethanol was applied to each well. The plates were incubated for three days at 25° C. and the inhibition zones measured (in mm).
(§4) The experiments were repeated and in the second run, Bc plates were made from Bc spores (the plates were termed Bc2) as such plates may result in a more uniform growth.

Pyrenophora teres = assay: Agar well inhibition zone, Pyrenophora teres (Pt); assay type: cell-based; parameters: key to inhibition zone Pt: clear; diffuse; very diffuse; +: very weak; conditions: 15 μl per well, 3 days at 25° C.
Experimental: Pyrenophora teres (Pt) net blotch disease
as §2

Phoma betae = assay: Agar well inhibition zone, Phoma betae (Pb); assay type: cell-based; conditions: Neocamarosporium betae, 72 h, 15 μl per well, 3 days at 25° C.
Experimental: Phoma betae (Pb) seedling black rot, black leg
as §2

Ascochyta pisi = assay: Agar well inhibition zone, Ascochyta pisi (Ap); assay type: cell-based; conditions: Ascochyta pisi, 72 h, 15 μl per well, 3 days at 25° C.
Experimental: Ascochyta pisi (Ap) leaf, stem and pod rot
as §2

Phoma lingam = assay: Agar well inhibition zone, Phoma lingam (Pl); assay type: cell-based; conditions: Plenodomus lingam, 72 h, 15 μl per well, 3 days at 25° C., read-out: inhibition zone P1
Experimental: Phoma lingam (Pl) canker and dry rot
as §2

Alternaria alternata = assay: Agar well inhibition zone, Alternaria alternata (Aa); assay type: cell-based; conditions: Alternaria alternata, 72 h, 15 μl per well, 3 days at 25° C.
Experimental: Alternaria alternata (Aa) black mould coverings, leaf spot
as §3, §4

Sclerotinia sclerotiorum = assay: Agar well inhibition zone, Sclerotinia sclerotiorum (Ss); assay type: cell-based; conditions: Sclerotinia sclerotiorum, 72 h, 15 μl per well, 3 days at 25° C.
Experimental: Sclerotinia sclerotiorum (Ss) white mould disease, stem rot
as §2

Monilinia fructigena = assay: Agar well inhibition zone, Monilinia fructigena (Mf); assay type: cell-based; conditions: Monilinia fructigena, 72 h, 15 μl per well, 3 days at 25° C.
Experimental: Monilinia fructigena (Mf) brown rot, fruit rot
as §2

plant pathogenic fungi = assay: In vitro fungicidal activity spectrum over the pathogens tested; assay type: cell-based
Experimental: The following pathogens were used:
as §3, §4

Botrytis cinerea [3] = assay: Fungicidal activity in vivo against Botrytis cinerea on sprayed plants; conditions: spray to run off, assessed after 6 days
Experimental: Activity of the compounds Ia and Ib against Botrytis cinerea Host: Lycopersicon esculentum (tomato, var. First in Field) […] plants (5 weeks old) were sprayed to run off with liquid solutions using a handhold sprayer (Bink Bullows 900). The solution (70% EtOH) had different concentrations of the compounds Ia and Ib. The plants were kept 24 hours in a green house to dry before they were inoculated with a spore suspension containing 1×10^5 spores/ml in 25% grape juice. The inoculation was carried out with a handhold atomizer (Wagner, Pico Bel). The plants were then incubated (16 hours light (1000 lux) and 8 hours dark) at 15°-20° C. in clear polyethylene bags to raise the relative humidity to 95-100%. After 6 days the assessment was done.

[4] = tested on: mouse peritoneal macrophage; assay: Mouse peritoneal macrophage assay, cellular ATP (viability); assay type: cell-based
[5] = tested on: mouse peritoneal macrophage; assay: Mouse peritoneal macrophage assay, chemiluminescence (phagocytosis); assay type: cell-based

C[C@@H]1Cc2cc(O)cc(O)c2C(=O)O[C@H](C)CC(=O)O[C@H](CO)CC(=O)O[C@H](C)Cc2cc(O)cc(O)c2C(=O)O[C@H](C)CC(=O)O1 [Compound Ia]
inhibition zone Bc1 (Botrytis cinerea [1]; 0.05 mg/ml): +
inhibition zone Bc1 (Botrytis cinerea [1]; 0.5 mg/ml): +
inhibition zone Bc1 (Botrytis cinerea [1]; 1.0 mg/ml): +
zone of inhibition at 10 µg/mL (Botrytis cinerea [1]; Botrytis cinerea, 72 h, 0.01 mg/ml): 0 mm
appearance of Bc zones (Botrytis cinerea [2]; Bc plates): very diffuse
time of incubation after which Bc zones could be seen (Botrytis cinerea [2]; Bc plates): ≥ 3 days
zone of inhibition at 50 µg/mL (Botrytis cinerea [2]; Botrytis cinerea, 72 h, 0.05 mg/ml, 15 μl per well, 3 days at 25° C., plates from spores): 12 mm
zone of inhibition at 500 µg/mL (Botrytis cinerea [2]; Botrytis cinerea, 72 h, 0.5 mg/ml, 15 μl per well, 3 days at 25° C., plates from spores): 48 mm
zone of inhibition at 1000 µg/mL (Botrytis cinerea [2]; Botrytis cinerea, 72 h, 1.0 mg/ml, 15 μl per well, 3 days at 25° C., plates from spores): 56 mm
inhibition zone Pt (Pyrenophora teres; 0.05 mg/ml): +
zone of inhibition at 10 µg/mL (Pyrenophora teres; Pyrenophora teres, 72 h, 0.01 mg/ml): 0 mm
zone of inhibition at 500 µg/mL (Pyrenophora teres; Pyrenophora teres, 72 h, 0.5 mg/ml): 35 mm
zone of inhibition at 1000 µg/mL (Pyrenophora teres; Pyrenophora teres, 72 h, 1.0 mg/ml): 40 mm
zone of inhibition at 10 µg/mL (Phoma betae; 0.01 mg/ml): 0 mm
zone of inhibition at 50 µg/mL (Phoma betae; 0.05 mg/ml): 0 mm
zone of inhibition at 500 µg/mL (Phoma betae; 0.5 mg/ml): 0 mm
zone of inhibition at 1000 µg/mL (Phoma betae; 1.0 mg/ml): 0 mm
zone of inhibition at 10 µg/mL (Ascochyta pisi; 0.01 mg/ml): 0 mm
zone of inhibition at 50 µg/mL (Ascochyta pisi; 0.05 mg/ml): 0 mm
zone of inhibition at 500 µg/mL (Ascochyta pisi; 0.5 mg/ml): 0 mm
zone of inhibition at 1000 µg/mL (Ascochyta pisi; 1.0 mg/ml): 0 mm
zone of inhibition at 10 µg/mL (Phoma lingam; 0.01 mg/ml): 0 mm
zone of inhibition at 50 µg/mL (Phoma lingam; 0.05 mg/ml): 18 mm
zone of inhibition at 500 µg/mL (Phoma lingam; 0.5 mg/ml): 42 mm
zone of inhibition at 1000 µg/mL (Phoma lingam; 1.0 mg/ml): 49 mm
zone of inhibition at 10 µg/mL (Alternaria alternata; 0.01 mg/ml): 0 mm
zone of inhibition at 50 µg/mL (Alternaria alternata; 0.05 mg/ml): 0 mm
zone of inhibition at 500 µg/mL (Alternaria alternata; 0.5 mg/ml): 0 mm
zone of inhibition at 1000 µg/mL (Alternaria alternata; 1.0 mg/ml): 0 mm
zone of inhibition at 10 µg/mL (Sclerotinia sclerotiorum; 0.01 mg/ml): 0 mm
zone of inhibition at 50 µg/mL (Sclerotinia sclerotiorum; 0.05 mg/ml): 24 mm
zone of inhibition at 500 µg/mL (Sclerotinia sclerotiorum; 0.5 mg/ml): 42 mm
zone of inhibition at 1000 µg/mL (Sclerotinia sclerotiorum; 1.0 mg/ml): 50 mm
zone of inhibition at 10 µg/mL (Monilinia fructigena; 0.01 mg/ml): 20 mm
zone of inhibition at 50 µg/mL (Monilinia fructigena; 0.05 mg/ml): 34 mm
zone of inhibition at 500 µg/mL (Monilinia fructigena; 0.5 mg/ml): 45 mm
zone of inhibition at 1000 µg/mL (Monilinia fructigena; 1.0 mg/ml): 50 mm
activity spectrum (plant pathogenic fungi; all pathogens tested, Table 2): more effective than the compound of formula IIa
number of pathogens against which compound was active (plant pathogenic fungi; with respect to Bc only for the plate containing spores): 5 pathogens
protection (Botrytis cinerea [3]; 37 ppm): approx. 10%
protection (Botrytis cinerea [3]; 375 ppm): approx. 60%
protection (Botrytis cinerea [3]; 1000 ppm): approx. 60%
IC50 [4]: 2.5 µg/mL (≈ 3.77 µM)
IC50 [5]: 2 µg/mL (≈ 3.02 µM)
